Key:
Type in all cases: ADME, organism-based, Mesocricetus auratus
Conditions in all cases: in vivo
[1] = Tmax in golden hamster at 50 mg/kg, po
[2] = AUC (0 to 24 hrs) in golden hamster at 50 mg/kg, po; set-up: dose 50 mg/kg, time < 24 hr, route oral
[3] = Cmax in golden hamster at 50 mg/kg, po; set-up: dose 50 mg/kg, route oral

SMILES: O=C(Nc1cc(-c2ccccn2)n[nH]1)N1CCN(c2ccc(F)cc2)CC1
- Tmax [1]: 1.33 h
- AUC(0-t) at 24 h [2]: 25400 ng·h/mL
- Cmax [3]: 5680 ng/mL

— ChEMBL document CHEMBL3745629, “Novel Amino-pyrazole Ureas with Potent In Vitro and In Vivo Antileishmanial Activity” (J Med Chem, 2015)
